Data published in the supplement of paper PMC10307832.

Key:
Experiment in all cases: relative viability (nuclei count vs DMSO), 5 days (fraction); higher = more cells survive
[1] = compound: C[C@@]1(C(=O)Nc2ccc(F)nc2)CCCN1c1nc(Nc2cc(C3CC3)n[nH]2)c2cccn2n1 + Nc1ncn([C@H]2C[C@H](O)[C@@H](CO)O2)c(=O)n1 [Decitabine] (partner 2 µM)
Method in brief: (§1)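 Five library-drug doses in √10 steps were combined with a fixed anchor-drug dose, or a single drug was given alone, by pin tool to lung cancer cell lines in 1536-well plates the day after seeding. Nuclei were stained and counted after 5 days. Relative viability is the nuclei count in treated wells over that in vehicle wells, taken as the median of duplicate plates.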

[2] = compound: C[C@@]1(C(=O)Nc2ccc(F)nc2)CCCN1c1nc(Nc2cc(C3CC3)n[nH]2)c2cccn2n1 + C[C@@H](Oc1cc(-c2cnn(C3CCNCC3)c2)cnc1N)c1c(Cl)ccc(F)c1Cl [Crizotinib] (partner 1 µM)
Method in brief: as §1

Motesanib + Palbociclib = compound: CC1(C)CNc2cc(NC(=O)c3cccnc3NCc3ccncc3)ccc21 [Motesanib] + CC(=O)c1c(C)c2cnc(Nc3ccc(N4CCNCC4)cn3)nc2n(C2CCCC2)c1=O [Palbociclib] (partner 0.5 µM)
Method in brief: as §1

Motesanib + AZD7762 = compound: CC1(C)CNc2cc(NC(=O)c3cccnc3NCc3ccncc3)ccc21 [Motesanib] + NC(=O)Nc1cc(-c2cccc(F)c2)sc1C(=O)N[C@H]1CCCNC1 [AZD7762] (partner 0.2 µM)
Method in brief: as §1

Cell Line	relative viability ([1]; first compound 0.04 µM)	relative viability ([1]; first compound 0.1265 µM)	relative viability ([1]; first compound 0.4 µM)	relative viability ([1]; first compound 1.265 µM)	relative viability ([2]; first compound 0.04 µM)	relative viability ([2]; first compound 0.1265 µM)	relative viability ([2]; first compound 0.4 µM)	relative viability ([2]; first compound 1.265 µM)	relative viability (Motesanib + Palbociclib; first compound 0.01 µM)	relative viability (Motesanib + Palbociclib; first compound 0.03162 µM)	relative viability (Motesanib + Palbociclib; first compound 0.1 µM)	relative viability (Motesanib + Palbociclib; first compound 0.3162 µM)	relative viability (Motesanib + Palbociclib; first compound 1 µM)	relative viability (Motesanib + AZD7762; first compound 0.01 µM)	relative viability (Motesanib + AZD7762; first compound 0.03162 µM)	relative viability (Motesanib + AZD7762; first compound 0.1 µM)	relative viability (Motesanib + AZD7762; first compound 0.3162 µM)	relative viability (Motesanib + AZD7762; first compound 1 µM)
LXF-289	0.361	0.385	0.394	0.383	0.837	0.806	0.751	0.714	0.659	0.6	0.563	0.656	0.585	1.07	1.06	1.14	1.22	1.16
NCI-H2405	0.68	0.487	0.488	0.576	0.862	0.759	0.649	0.889	0.511	0.499	0.535	0.562	0.52	0.629	0.632	0.691	0.812	0.765
NCI-H1755	0.698	0.687	0.704	0.74	0.919	0.793	0.756	0.836	0.459	0.46	0.487	0.477	0.48	0.407	0.45	0.467	0.425	0.383
HCC-78	0.624	0.564	0.587	0.394	0.31	0.212	0.216	0.307	0.442	0.467	0.478	0.511	0.56	0.657	0.547	0.907	–	0.795
LOU-NH91	0.774	0.874	0.744	0.771	0.736	0.812	0.667	0.725	0.536	0.463	0.539	0.58	0.553	0.746	0.732	0.782	0.789	0.779
NCI-H3122	0.361	0.337	0.349	0.386	0.212	0.2	0.182	0.222	0.186	0.194	0.213	0.217	0.161	0.972	1.02	0.945	1.06	1.15
HCC-827	0.295	0.312	0.351	0.305	0.897	0.899	0.901	0.9	0.569	0.437	0.459	0.546	0.439	0.216	0.29	0.196	0.213	0.175
NCI-H1975	0.38	0.388	0.319	0.303	0.962	0.929	0.899	0.486	0.53	0.508	0.507	0.565	0.617	0.656	0.686	0.752	0.821	0.709
NCI-H1651	0.567	0.527	0.565	0.45	0.762	0.896	0.775	0.846	0.528	0.523	0.538	0.508	0.513	0.401	0.499	0.547	0.451	0.463
NCI-H441	0.24	0.213	0.23	0.223	0.603	0.704	0.553	0.527	0.237	0.214	0.268	0.2	0.23	0.97	1.2	1.1	1.01	0.954
LCLC-103H	0.745	0.661	0.71	0.712	1.07	1.01	0.904	1.04	0.505	0.469	0.525	0.555	0.513	0.802	0.743	0.781	0.825	0.829
LCLC-97TM1	0.228	0.131	0.111	0.271	0.184	0.186	0.12	0.187	0.188	0.216	0.229	0.32	0.261	–	0.328	0.241	0.238	0.256
NCI-H727	0.8	0.636	0.529	0.362	0.687	0.436	0.259	0.211	0.631	0.652	0.687	0.639	0.606	0.547	0.56	0.856	0.488	0.58
NCI-H1355	0.388	0.313	0.337	0.352	0.896	0.824	0.728	1.02	0.429	0.413	0.397	0.392	0.38	0.778	0.54	0.837	0.687	0.673
HOP-62	0.181	0.203	0.224	0.173	0.896	0.96	0.888	0.981	0.451	0.43	0.499	0.51	0.494	0.456	0.836	0.613	0.761	0.595
NCI-H2085	0.51	0.499	0.538	0.528	0.913	0.979	0.844	0.635	0.512	0.488	0.471	0.465	0.474	1.02	0.933	1.14	0.953	0.987
